Results from patent US20050257287A1, “Vectors capable of imparting herbicide resistance and viral cross protection and methods” (priority 2002, published 2005).

System: weeds including nutgrass (Cyperus rotundus L.), little hogweed (Portulaca oleracea L.), pigweed (Amaranthus sp.) and annual graminaceous weeds
Assay: Field experiment: weed eradication by Basta
Type: in vivo
Conditions: 0.5% Basta with or without AMS 1.5 g/L
Protocol: Two varieties of melon (Galia-type cv. 5080 and Ananas-type cv. Ofir), two varieties of watermelon (cvs Crimson and Seedless 313), squash (cv. Maayan) and cucumber (cv. Shimshon) were seeded in Speedling type trays. Seedlings were inoculated by bombardment of cotyledons with the AGII-Bar or AGII construct. Plants were planted in a 500 m^2 field, in a sandy loam soil, at 0.5 m intervals in six 2 m wide rows and irrigated by a single line of 0.5 m interval dripline. Each row included 15 plants of each of the five-cucurbit varieties, 13 plants inoculated with AGII-Bar and two inoculated with AGII as a control. Irrigation was initiated a week previously to boost weeds and facilitate planting. […] The active ingredient was calculated per hectare (g a.i./ha) on basis of ground speed measured separately for each treatment. […] Squash fruit were picked and counted daily. […] Each group was counted and then weighed collectively.
In order to verify the applicability of AGII-Bar to commercial cucurbit cultivation in a field prone to weed infestation an experiment including more than 450 plants was conducted. […] Ten day post inoculation, the infection rate was determined by ELISA of 50 random plant samples and found to be 100%. […]

ammonium sulphate [AMS]
Effect of adjuvant on herbicidal activity: did not exert a detectable difference
